Reference: PubChem BioAssay AID1918994 (Molecular Pharmacology Branch, DTP, NCI, 2023)
Several values for one entry are separate records, joined by “and”; a condition that tells them apart may be missing. Identical values can stand only once.

System: 292921-168-R-J2-PDC complex spheroid growth
Test: Anticancer human tumor 292921-168-R-J2-PDC patient-derived pancreatic carcinoma cell line growth inhibition [AhR]
Settings: for viability, T/C: stronger effect = lower value
Method in brief: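 Spheroids combined tumor cells with HUVEC endothelial cells and human MSCs as stroma. AhR antagonists were paired with standard or investigational drugs, each dosed in half-log steps down from near clinical Cmax, or from 10 microM where Cmax was unknown.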

[1] = curve of first compound, second compound 0.1 µM
[2] = curve of first compound, second compound 0.316 µM
[3] = curve of first compound, second compound 1 µM
[4] = curve of first compound, second compound 3.16 µM
[5] = curve of first compound, second compound 10 µM
[6] = second compound 0.1 µM, first compound 0.0316 µM
[7] = second compound 0.1 µM, first compound 0.1 µM
[8] = second compound 0.1 µM, first compound 0.316 µM
[9] = second compound 0.1 µM, first compound 1 µM
[10] = second compound 0.1 µM, first compound 3.16 µM
[11] = second compound 0.1 µM, first compound 10 µM
[12] = second compound 0.316 µM, first compound 0.0316 µM
[13] = second compound 0.316 µM, first compound 0.1 µM
[14] = second compound 0.316 µM, first compound 0.316 µM
[15] = second compound 0.316 µM, first compound 1 µM
[16] = second compound 0.316 µM, first compound 3.16 µM
[17] = second compound 0.316 µM, first compound 10 µM
[18] = second compound 1 µM, first compound 0.0316 µM
[19] = second compound 1 µM, first compound 0.1 µM
[20] = second compound 1 µM, first compound 0.316 µM
[21] = second compound 1 µM, first compound 1 µM
[22] = second compound 1 µM, first compound 3.16 µM
[23] = second compound 1 µM, first compound 10 µM
[24] = second compound 3.16 µM, first compound 0.0316 µM
[25] = second compound 3.16 µM, first compound 0.1 µM
[26] = second compound 3.16 µM, first compound 0.316 µM
[27] = second compound 3.16 µM, first compound 1 µM
[28] = second compound 3.16 µM, first compound 3.16 µM
[29] = second compound 3.16 µM, first compound 10 µM
[30] = second compound 10 µM, first compound 0.0316 µM
[31] = second compound 10 µM, first compound 0.1 µM
[32] = second compound 10 µM, first compound 0.316 µM
[33] = second compound 10 µM, first compound 1 µM
[34] = second compound 10 µM, first compound 3.16 µM
[35] = second compound 10 µM, first compound 10 µM
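Further: spheroids exposed to compounds for seven days after three days of growth.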

| SMILES | IC50 [1] [nM] | IC50 [2] [nM] | IC50 [3] [nM] | IC50 [4] [nM] | IC50 [5] [nM] | viability, T/C [6] [%] | viability, T/C [7] [%] | viability, T/C [8] [%] | viability, T/C [9] [%] | viability, T/C [10] [%] | viability, T/C [11] [%] | viability, T/C [12] [%] | viability, T/C [13] [%] | viability, T/C [14] [%] | viability, T/C [15] [%] | viability, T/C [16] [%] | viability, T/C [17] [%] | viability, T/C [18] [%] | viability, T/C [19] [%] | viability, T/C [20] [%] | further results |
| --- | --- | --- | --- | --- | --- | --- | --- | --- | --- | --- | --- | --- | --- | --- | --- | --- | --- | --- | --- | --- | --- |
| CC(C)c1c(-c2ccccc2)nc2c(C#N)c[nH]n2c1=O + Cc1cncc(-c2nc(NCCc3c[nH]c4ccccc34)c3ncn(C(C)C)c3n2)c1 | > 10000 | > 10000 | > 10000 | > 10000 | 386 | 103 | 95.1 | 89.7 | 98.8 | 97.4 | 97.2 | 98.7 | 98.8 | 95.8 | 99.8 | 100 | 92.7 | 91.2 | 85.6 | 88.9 | viability, T/C [21]: 83.5%; viability, T/C [22]: 75.4%; viability, T/C [23]: 78.1%; viability, T/C [24]: 76.4%; viability, T/C [25]: 76.3%; viability, T/C [26]: 79%; viability, T/C [27]: 67.1%; viability, T/C [28]: 65.3%; viability, T/C [29]: 62%; viability, T/C [30]: 51%; viability, T/C [31]: 50.1%; viability, T/C [32]: 56.2%; viability, T/C [33]: 46.1%; viability, T/C [34]: 43.9%; viability, T/C [35]: 42.6% |
| CC(C)CC(NC(=O)C(Cc1ccccc1)NC(=O)c1cnccn1)B(O)O (configuration not stated) | – | – | – | – | – | – | – | – | – | – | – | – | – | – | – | – | – | – | – | – | viability, T/C (compound 0.000949 µM): 106% and 109% and 104%; viability, T/C (compound 0.003 µM): 116% and 121% and 106%; viability, T/C (compound 0.00949 µM): 53.1% and 25.4% and 12.2%; viability, T/C (compound 0.03 µM): 3.87% and 2.27% and 1.64%; viability, T/C (compound 0.0949 µM): 0.72% and 0.67% and 0.85%; viability, T/C (compound 0.3 µM): 0.4% and 0.5% and 2.3%; IC50 (curve of compound): 10.2 nM and 6.92 nM and 5.94 nM |
| COc1cccc2c1C(=O)c1c(O)c3c(c(O)c1C2=O)CC(O)(C(=O)CO)CC3OC1CC(N)C(O)C(C)O1 (configuration not stated) + CC(CO)NC(=O)c1cc(-c2ccc(Cl)cc2)nn(-c2cnn(C)c2)c1=O | < 31.6 | < 31.6 | < 31.6 | < 31.6 | < 31.6 | 32.5 | 22.5 | 7.11 | 1.19 | 3.72 | 4.17 | 31.8 | 21.6 | 8.73 | 1.26 | 2.17 | 4.63 | 31.9 | 26.1 | 8.6 | viability, T/C [21]: 1.22%; viability, T/C [22]: 2%; viability, T/C [23]: 4.64%; viability, T/C [24]: 29.6%; viability, T/C [25]: 22.4%; viability, T/C [26]: 5.98%; viability, T/C [27]: 1.4%; viability, T/C [28]: 2.71%; viability, T/C [29]: 3.71%; viability, T/C [30]: 25.2%; viability, T/C [31]: 19.9%; viability, T/C [32]: 4.23%; viability, T/C [33]: 1.07%; viability, T/C [34]: 2.43%; viability, T/C [35]: 5.08% |
